Tested on: green peach aphid (Myzus persicae)
Experiment: Myzus Test
Type: in vivo
Settings: broad bean seedlings (Vicia faba) dipped, concentration of active compound 1000 ppm
Procedure: Myzus Test Solvent: 30 parts by weight of acetone Emulsifier: 1 part by weight of alkylaryl polyglycol ether To produce a suitable preparation of active compound, 1 part by weight of active compound is mixed with the stated amounts of solvent and emulsifier, […], and the concentrate is diluted with emulsifier-containing water to the desired concentrations. Broad bean seedlings (Vicia faba) infested by the green peach aphid (Myzus persicae) are dipped into a preparation of active compound of the desired concentration and placed in a dish made of plastic. After the desired period of time, the kill in % is determined. 100% means that all animals have been killed; 0% means that none of the animals have been killed.

Row | SMILES | kill rate
1 | COC(=O)C(=NOCF)c1ccccc1COc1ccn(-c2ccc(Cl)cc2)n1 [Example 1, methyl 2-[2-({[1-(4-chlorophenyl)-1H-pyrazol-3-yl]oxy}methyl)phenyl]-2-[(fluoromethoxy)imino]acetate] | 95%

Tested on: not listed separately
Experiment: logP determination by HPLC (EEC Directive 79/831 Annex V.A8)
Type: physicochemical
Settings: not given
Procedure: The logP values were determined in accordance with EEC Directive 79/831 Annex V.A8 by HPLC (gradient method, acetonitrile/0.1% aqueous phosphoric acid).

Row | chromatographic logP | SMILES
2 | 3.86 | COC(=O)C(=NOCF)c1ccccc1COc1ccn(-c2ccc(Cl)cc2)n1 [Example 1, methyl 2-[2-({[1-(4-chlorophenyl)-1H-pyrazol-3-yl]oxy}methyl)phenyl]-2-[(fluoromethoxy)imino]acetate]
3 | 3.3 | CNC(=O)C(=NOCF)c1ccccc1COc1ccn(-c2ccc(Cl)cc2)n1 [Example 2, 2-[2-({[1-(4-chlorophenyl)-1H-pyrazol-3-yl]oxy}methyl)phenyl]-2-[(fluoromethoxy)imino]-N-methylacetamide]

Same assay, conditions: HPLC, gradient method, acetonitrile/0.1% aqueous phosphoric acid

Row | SMILES | logP
4 | CNC(=O)C(=NOCF)c1ccccc1OCc1ccn(-c2cc(Cl)cc(Cl)c2)n1 [Example 7] | 3.93
5 | COC(=O)C(=NOCF)c1ccccc1OCc1ccn(-c2ccccc2Cl)n1 [Example 8] | 3.53
6 | COC(=O)C(=NOCF)c1ccccc1OCc1ccn(-c2ccc(Cl)cc2Cl)n1 [Example 11] | 4.09
7 | COC(=O)C(=NOCF)c1ccccc1OCc1ccn(-c2ccccc2Br)n1 [Example 12] | 3.54
8 | COC(=O)C(=NOCF)c1ccccc1OCc1ccn(-c2ccccc2)n1 [Example 14] | 3.4
9 | COC(=O)C(=NOCF)c1ccccc1OCc1ccn(-c2cc(Cl)cc(Cl)c2)n1 [Example 15] | 4.52
10 | CNC(=O)C(=NOCF)c1ccccc1OCc1ccn(-c2ccc(Cl)cc2Cl)n1 [Example 19] | 3.5
11 | COC(=O)C(=NOCF)c1ccccc1OCc1ccn(-c2ccc(C(C)(C)C)cc2)n1 [Example 21] | 4.63
12 | COC(=O)C(=NOCF)c1ccccc1OCc1ccn(-c2ccccc2F)n1 [Example 25] | 3.51
13 | COC(=O)C(=NOCF)c1ccccc1OCc1ccn(-c2ccc(F)cc2F)n1 [Example 26] | 3.52
14 | COC(=O)C(=NOCF)c1ccccc1OCc1ccn(-c2cccc(Cl)c2Cl)n1 [Example 27] | 3.9
15 | COC(=O)C(=NOCF)c1ccccc1OCc1ccn(-c2ccc(C)c(C)c2)n1 [Example 28] | 3.92
16 | COC(=O)C(=NOCF)c1ccccc1OCc1ccn(-c2cc(Cl)ccc2Cl)n1 [Example 29] | 4.5
17 | COC(=O)C(=NOCF)c1ccccc1OCc1ccn(-c2cccc(C)c2)n1 [Example 30] | 3.73
18 | CNC(=O)C(=NOCF)c1ccccc1OCc1ccn(-c2ccc(F)cc2F)n1 [Example 33] | 3.02
19 | CNC(=O)C(=NOCF)c1ccccc1OCc1ccn(-c2cccc(Cl)c2Cl)n1 [Example 34] | 3.31
20 | COC(=O)C(=NOCF)c1ccccc1OCc1ccn(-c2cccc(Cl)c2)n1 [Example 37] | 3.88

Further lines, results first:

Row | logP | SMILES
21 | 2.91 | CNC(=O)C(=NOCF)c1ccccc1OCc1ccn(-c2ccc(F)cc2)n1 [Example 3]
22 | 4.38 | COC(=O)C(=NOCF)c1ccccc1OCc1ccn(-c2ccc(C(C)C)cc2)n1 [Example 4]
23 | 3.39 | CNC(=O)C(=NOCF)c1ccccc1OCc1ccn(-c2cccc(Br)c2)n1 [Example 5]
24 | 3.4 | CNC(=O)C(=NOCF)c1ccccc1OCc1ccn(-c2ccc(Br)cc2)n1 [Example 6]
25 | 3.18 | COC(=O)C(=NOCF)c1ccccc1OCc1ccn(-c2ccc(C#N)cc2)n1 [Example 9]
26 | 3.74 | COC(=O)C(=NOCF)c1ccccc1OCc1ccn(-c2ccc(C)cc2)n1 [Example 10]
27 | 3.98 | COC(=O)C(=NOCF)c1ccccc1OCc1ccn(-c2ccc(Br)cc2)n1 [Example 13]
28 | 3.98 | COC(=O)C(=NOCF)c1ccccc1OCc1ccn(-c2cccc(Br)c2)n1 [Example 16]
29 | 3.47 | COC(=O)C(=NOCF)c1ccccc1OCc1ccn(-c2ccc(F)cc2)n1 [Example 17]
30 | 2.83 | CNC(=O)C(=NOCF)c1ccccc1OCc1ccn(-c2ccccc2)n1 [Example 18]
31 | 2.96 | CNC(=O)C(=NOCF)c1ccccc1OCc1ccn(-c2ccccc2Cl)n1 [Example 22]
32 | 4.04 | CNC(=O)C(=NOCF)c1ccccc1OCc1ccn(-c2ccc(C(C)(C)C)cc2)n1 [Example 23]
33 | 3.15 | CNC(=O)C(=NOCF)c1ccccc1OCc1ccn(-c2cccc(C)c2)n1 [Example 31]
34 | 2.93 | CNC(=O)C(=NOCF)c1ccccc1OCc1ccn(-c2ccccc2F)n1 [Example 32]
35 | 3.43 | CNC(=O)C(=NOCF)c1ccccc1OCc1ccn(-c2cc(Cl)ccc2Cl)n1 [Example 36]
36 | 3.83 | CNC(=O)C(=NOCF)c1ccccc1OCc1ccn(-c2ccc(C(C)C)cc2)n1 [Example 38]
37 | 3.14 | CNC(=O)C(=NOCF)c1ccccc1OCc1ccn(-c2ccc(C)cc2)n1 [Example 41]
38 | 2.64 | CNC(=O)C(=NOCF)c1ccccc1OCc1ccn(-c2ccc(C#N)cc2)n1 [Example 42]
39 | 3.3 | CNC(=O)C(=NOCF)c1ccccc1OCc1ccn(-c2cccc(Cl)c2)n1 [Example 43]

Tested on: larvae of the mustard beetle (Phaedon cochleariae)
Experiment: Phaedon Larvae Test
Type: in vivo
Settings: cabbage leaves (Brassica oleracea) dipped, concentration of active compound 1000 ppm
Procedure: Phaedon Larvae Test Solvent: 30 parts by weight of acetone Emulsifier: 1 part by weight of alkylaryl polyglycol ether To produce a suitable preparation of active compound, 1 part by weight of active compound is mixed with the stated amounts of solvent and emulsifier, and the concentrate is diluted with emulsifier-containing water to the desired concentration. Cabbage leaves (Brassica oleracea) are treated by being dipped into the preparation of active compound of the desired concentration and are populated with larvae of the mustard beetle (Phaedon cochleariae) while the leaves are still moist. After the desired period of time, the kill in % is determined. 100% means that all beetle larvae have been killed; 0% means that none of the beetle larvae have been killed.

Row | SMILES | kill rate
40 | COC(=O)C(=NOCF)c1ccccc1COc1ccn(-c2ccc(Cl)cc2)n1 [Example 1, methyl 2-[2-({[1-(4-chlorophenyl)-1H-pyrazol-3-yl]oxy}methyl)phenyl]-2-[(fluoromethoxy)imino]acetate] | 100%

Tested on: Puccinia recondita
Experiment: Puccinia Test (wheat)/protective
Type: in vivo
Settings: protective, application rate 250 g/ha, evaluation 10 days after inoculation
Procedure: Puccinia Test (wheat)/protective Solvent: 25 parts by weight of N,N-dimethylacetamide Emulsifier: 0.6 part by weight of alkylaryl polyglycol ether To produce a suitable preparation of active compound, 1 part by weight of active compound is mixed with the stated amounts of solvent and emulsifier, and the concentrate is diluted with water to the desired concentration. To test for protective activity, young plants are sprayed with the preparation of active compound at the stated application rate. After the spray coating has dried on, the plants are sprayed with a conidia suspension of Puccinia recondita. The plants remain in an incubation cabin at 20° C. and 100% relative atmospheric humidity for 48 hours. The plants are then placed in a greenhouse at a temperature of about 20° C. and a relative atmospheric humidity of 80% to promote the development of rust pustules.

Row | SMILES | efficacy
41 | COC(=O)C(=NOCF)c1ccccc1COc1ccn(-c2ccc(Cl)cc2)n1 [Example 1, methyl 2-[2-({[1-(4-chlorophenyl)-1H-pyrazol-3-yl]oxy}methyl)phenyl]-2-[(fluoromethoxy)imino]acetate] | ≥ 98%

Tested on: Erysiphe graminis f.sp. hordei
Experiment: Erysiphe Test (barley)/protective
Type: in vivo
Settings: protective, application rate 250 g/ha, evaluation 7 days after inoculation
Procedure: Erysiphe Test (barley)/protective Solvent: 25 parts by weight of N,N-dimethylacetamide Emulsifier: 0.6 part by weight of alkylaryl polyglycol ether To produce a suitable preparation of active compound, 1 part by weight of active compound is mixed with the stated amounts of solvent and emulsifier, and the concentrate is diluted with water to the desired concentration. To test for protective activity, young plants are sprayed with the preparation of active compound at the stated application rate. After the spray coating has dried on, the plants are dusted with spores of Erysiphe graminis f.sp. hordei. The plants are placed in a greenhouse at a temperature of about 20° C. and a relative atmospheric humidity of about 80% to promote the development of mildew pustules.

Row | SMILES | efficacy
42 | CNC(=O)C(=NOCF)c1ccccc1COc1ccn(-c2ccc(Cl)cc2)n1 [Example 2, 2-[2-({[1-(4-chlorophenyl)-1H-pyrazol-3-yl]oxy}methyl)phenyl]-2-[(fluoromethoxy)imino]-N-methylacetamide] | ≥ 98%

Tested on: Puccinia recondita
Experiment: Puccinia Test (wheat)/curative
Type: in vivo
Settings: curative, application rate 250 g/ha, evaluation 10 days after inoculation
Procedure: Puccinia Test (wheat)/curative Solvent: 25 parts by weight of N,N-dimethylacetamide Emulsifier: 0.6 part by weight of alkylaryl polyglycol ether To produce a suitable preparation of active compound, 1 part by weight of active compound is mixed with the stated amounts of solvent and emulsifier, and the concentrate is diluted with water to the desired concentration. To test for curative activity, young plants are sprayed with a conidia suspension of Puccinia recondita. The plants remain in an incubation cabin at 20° C. and 100% relative atmospheric humidity for 48 hours. The plants are then sprayed with the preparation of active compound at the stated application rate. The plants are placed in a greenhouse at a temperature of about 20° C. and a relative atmospheric humidity of about 80% to promote the development of rust pustules.

Row | SMILES | efficacy
43 | CNC(=O)C(=NOCF)c1ccccc1COc1ccn(-c2ccc(Cl)cc2)n1 [Example 2, 2-[2-({[1-(4-chlorophenyl)-1H-pyrazol-3-yl]oxy}methyl)phenyl]-2-[(fluoromethoxy)imino]-N-methylacetamide] | ≥ 98%
